Experimental data taken from US20120100184A1, “SYNTHESIS OF 1-AMINO-1,3,3,5,5,-CYCLOHEXANE MESYLATE” (MERZ PHARMA GmbH & CO.KGaA, priority 2009, published 2012).

Columns and labels:
[1] = mesylate of the prior art (Schweizer, Dissertation, page 200); cited from earlier work
[2] = Amount of solvent necessary to dissolve 1 g neramexane mesylate (re-crystallization step (iii)); type: physicochemical
Description: 20 ml cumene are necessary to dissolve 1 g neramexane mesylate at 104° C. The mixture is cooled down to ambient temperature. The re-crystallized product is isolated via centrifugation. The obtained crystals are columnar.
22 ml methyl ethyl ketone are necessary to dissolve 1 g neramexane mesylate at 80° C. The mixture is cooled down to ambient temperature. The re-crystallized product is isolated via centrifugation. The obtained crystals have the form of plates in admixture with columnar crystals.
20 ml methyl isobutyl ketone are necessary to dissolve 1 g neramexane mesylate at 100° C. The mixture is cooled down to ambient temperature. The re-crystallized product is isolated via centrifugation. The obtained crystals are columnar.
23 ml n-butyl acetate are necessary to dissolve 1 g neramexane mesylate at 100° C. The mixture is cooled down to ambient temperature. The re-crystallized product is isolated via centrifugation. The obtained crystals are columnar.
10 ml anisole are necessary to dissolve 1 g neramexane mesylate at 87° C. The mixture is cooled down to ambient temperature. The re-crystallized product is isolated via centrifugation. The obtained crystals are columnar.
20 ml tetrahydrofurane are necessary to dissolve 1 g neramexane mesylate at 60° C. The mixture is cooled down to 57° C., where 5% by weight neramexane mesylate is added. Subsequently, the mixture is cooled down to ambient temperature. The re-crystallized product is isolated via centrifugation in a yield of 89%. The obtained crystals have the form of plates.
20 ml toluene are necessary to dissolve 1 g neramexane mesylate at 80° C. The mixture is cooled down to ambient temperature. The re-crystallized product is isolated via centrifugation.
100 ml of the mixture of acetone and water are necessary to dissolve 1 g neramexane mesylate at 40° C. The mixture is cooled down to ambient temperature. The re-crystallized product is isolated via centrifugation in a yield of 66%.
55 ml of dichloromethane are necessary to dissolve 1 g neramexane mesylate at 40° C. The mixture is cooled down to ambient temperature. The re-crystallized product is isolated via centrifugation in a yield of 87%.

[3] = Particle size distribution of neramexane mesylate crystals by laser diffraction; type: physicochemical; conditions: for d(10) / d(50) / d(90): Example 17, re-crystallized from anisole; for PSD d(10) / PSD d(50) / PSD d(90): re-crystallization step (iii) and seeding step (iv)
Description: The particle size is determined according to the known methods employing laser diffraction as already mentioned above, and determining the distribution modal sizes.
Particle size distribution ranges as determined by laser diffraction with mesylates obtained in anisole, cumene, methyl ethyl ketone, methyl isobutyl ketone and n-butyl acetate by performing at least re-crystallization step (iii) and seeding step (iv) are disclosed in the following table:
The crystals obtained in the process of Example 1 are analysed regarding the crystal size and size distribution. A commercial Malvern Mastersizer 2000 is employed. The samples are dispersed in rapeseed oil.

[4] = Example 3, anisole, 5% by weight seeds added
[5] = crystals of Example 1 (anisole, no seeds), Malvern Mastersizer 2000, dispersed in rapeseed oil
[6] = obtained in methyl ethyl ketone
[7] = obtained in methyl isobutyl ketone

## CC1(C)CC(C)(C)CC(C)(N)C1.CS(=O)(=O)O [neramexane mesylate, 1-amino-1,3,3,5,5-pentamethylcyclohexane mesylate]
[1]
  particle population having a diameter of less than 10 μm: approximately 20 % by weight
[2]; anisole, 87° C.
  solvent necessary to dissolve 1 g neramexane mesylate: 10 mL
[2]; cumene, 104° C.
  solvent necessary to dissolve 1 g neramexane mesylate: 20 mL
[2]; dichloromethane, 40° C. (comparison)
  solvent necessary to dissolve 1 g neramexane mesylate: 55 mL
[2]; methyl ethyl ketone, 80° C.
  solvent necessary to dissolve 1 g neramexane mesylate: 22 mL
[2]; methyl isobutyl ketone, 100° C.
  solvent necessary to dissolve 1 g neramexane mesylate: 20 mL
[2]; mixture of acetone/water 99/1 (volume/volume), 40° C. (comparison)
  solvent necessary to dissolve 1 g neramexane mesylate: 100 mL
[2]; n-butyl acetate, 100° C.
  solvent necessary to dissolve 1 g neramexane mesylate: 23 mL
[2]; tetrahydrofurane, 60° C.
  solvent necessary to dissolve 1 g neramexane mesylate: 20 mL
[2]; toluene, 80° C. (comparison)
  solvent necessary to dissolve 1 g neramexane mesylate: 20 mL
[3]; [4]
  Particle size Distribution d(10): 15 μm
  Particle size Distribution d(50): 74 μm
  Particle size Distribution d(90): 184 μm
[3]; Example 17, anisole, 1%, 2.5%, 5% and 7.5% seeds, respectively
  amount of particulate matter (particles having a diameter of 10 μm and less): below 5 % by weight
[3]; 1% seeds
  d(10): 69 μm
  d(50): 181 μm
  d(90): 377 μm
[3]; 2.5% seeds
  d(10): 36 μm
  d(50): 119 μm
  d(90): 330 μm
[3]; 5% seeds
  d(10): 24 μm
  d(50): 86 μm
  d(90): 215 μm
[3]; 7.5% seeds
  d(10): 21 μm
  d(50): 76 μm
  d(90): 243 μm
[3]; crystals of Example 1 (anisole, no seeds)
  total amount of particles having a particle size of 10 μm and less: less than 1 % by weight
[3]; [5]
  Particle size Distribution d(10): 52.3 μm
  Particle size Distribution d(50): 129.4 μm
  Particle size Distribution d(90): 264.5 μm
[3]; obtained in anisole
  PSD d(10): 15 μm
  PSD d(50): 74 μm
  PSD d(90): 184 μm
[3]; obtained in cumene
  PSD d(10): 12 μm
  PSD d(50): 62 μm
  PSD d(90): 152 μm
[3]; [6]
  PSD d(10): 5 μm
  PSD d(50): 79 μm
  PSD d(90): 210 μm
[3]; [7]
  PSD d(10): 11 μm
  PSD d(50): 57 μm
  PSD d(90): 137 μm
[3]; obtained in n-butyl acetate
  PSD d(10): 12 μm
  PSD d(50): 58 μm
  PSD d(90): 136 μm
